Results reported in US5962524A, “Depigmenting composition” (Caster, priority 1997, dated 1999).

Experiments:
[1] = test system: tail pigmentation of black mice; assay: Depigmenting power in vivo on the tails of black mice (lightness parameter L*); conditions: concentration ten times as great increases the efficacy by a factor of two
Procedure: L 908/1). Composition 1: gel containing 99.0% of liposomes containing a 0.5% dose of diethyl acetone-α,α'-dioxalate Composition 2: emulsion containing 10.0% of liposomes containing a 0.5% dose of diethyl acetone-α,α'-dioxalate Reference product: composition containing 2% hydroquinone Each composition is applied daily for 28 days to the tail of four black mice. For each mouse, the lightness parameter L* is measured on day D0, D15 and D28 using a chromameter.

[2] = test system: tyrosinase in melanocytes of human skin explants; assay: Depigmenting power in vitro on skin explants (histological evaluation of melanocyte coloration); format: cell-based; conditions: for tyrosinase activity: 15 hours at 37° C., 0.005 M L-DOPA
Procedure: The inhibitory activity of diethyl acetone-α,α'-dioxalate on tyrisonase in melanocytes was evaluated by a histological study on skin explants.
After thawing and fixing for 30 minutes in 10% (w/v) formaldehyde solution, human skin explants obtained from an abdominoplasty are incubated for 15 hours at 37° C. in the presence of 0.005 M of L-DOPA and of the test products.
The diethyl acetone-α,α'-dioxalate is used at concentrations of 0.5%, 1% and 2% (w/v) in a 10% (v/v) solution of DMSO in water.
Control explants incubated only in the presence of 0.005 M of L-DOPA are prepared in parallel.
For the histological examination, 4 μm thick slices are taken from explants included in paraffin and the slices are stained with cresyl violet.
Optical microscopy photographs in white light allow a visual evaluation of the coloration of the melanocytes reflecting the tyrosinase activity.

tyrosinase [3] = assay: Inhibition of the tyrosine-tyrosinase reaction, spectrophotometric assay of melanin (absorbance at 477 nm); format: biochemical
Procedure: This is a spectrophotometric assay (absorbance at 477 nm) of the melanin produced in vitro by tyrosinase from the tyrosine substrate. […] 2.0 ml of bis Tris buffer (0.1 M, pH 6.5) and 5.0 ml of tyrosine stock solution are added to 0 ml, 1.2 ml, 2.0 ml and 2.5 ml of tyrosinase solution and the mixtures are each completed with water to a total volume of 10.0 ml. These mixtures are incubated for 1 hour and 30 minutes at 37° C. on a water bath and are then rapidly cooled to 4° C. Measurement of the absorbance of the solutions at λ=477 nm relative to a solution free of tyrosinase makes it possible to plot a calibration curve characterized by the curve equation y=0.813×+1.27×10^-3 and by a correlation coefficient equal to 0.999. The following solutions are then prepared: Control solution (100% tyrosinase activity): Solution to be ascertained: These two solutions are incubated for 1 hour 30 minutes on a water bath at 37° C. The solutions are rapidly cooled to 4° C. and the absorbance at 477 nm is then read, taking a blank free of tyrosinase as reference.

tyrosinase [4] = assay: Inhibition of the L-DOPA-tyrosinase reaction, revealed by thin layer chromatography; format: biochemical; conditions: 10 μl of a 1% solution in ethanol on silica gel plate; L-DOPA 1 M, tyrosinase 238 IU/ml
Procedure: 10 μl of a 1% solution of diethyl acetone-α,α'-dioxalate in ethanol (at 96%) is deposited onto G60 silica gel plates. The migration solvent is a butanol/water/acetic acid mixture (4/1/1, v/v/v) which is migrated to a height of 10 cm. After drying, an L-DOPA solution (1 M) is sprayed over the entire plate, followed by a tyrosinase solution (238 IU/ml). […] This white spot is due to the absence of tyrosinase activity converting the L-DOPA substrate into dopaquinone, the molecule which spontaneously converts into a brown pigment (brown background) in the presence of light.

[5] = Oral toxicity in rats (LD50); conditions: rat, in vivo, administered orally to rats, read-out: 50% lethal dose (LD50)
Procedure: The evaluation of the toxicity of the active principle of the present invention, administered orally to rats, gives 50% lethal dose values (LD50) of greater than 2000 mg/kg. Diethyl acetone-α,α'-dioxalate is thus not classed as a risk product.

| Compound | dose dependence of depigmenting efficacy [1] | tyrosinase activity ([2]; 0.5% (w/v) in 10% DMSO) | tyrosinase activity ([2]; 1.0% (w/v) in 10% DMSO) | tyrosinase activity ([2]; 2.0% (w/v) in 10% DMSO) | inhibition of the tyrosinase activity in skin explants ([2]; tested at 0.5%, 1.0% and 2%) | in vitro production of melanin by tyrosinase from L-tyrosine (tyrosinase [3]; 2.58% solution in alcohol) | Absorbance at 477 nm solution to be assayed, mean (tyrosinase [3]; mean of five tests, 2.0 ml of 2.58% solution in alcohol, 1 h 30 min at 37° C., control mean ≈1.16) | Absorbance at 477 nm solution to be assayed (tyrosinase [3]; single tests 1-5, 2.0 ml of 2.58% solution in alcohol, 1 h 30 min at 37° C., control solution 1.16-1.23) | inhibition of the DOPA-tyrosinase reaction (white band on brown background) (tyrosinase [4]) | LD50 [5] | tyrosinase activity ([2]; 1.1% (w/v) in 10% DMSO) |
| --- | --- | --- | --- | --- | --- | --- | --- | --- | --- | --- | --- |
| CCOC(=O)C(O)=CC(=O)C=C(O)C(=O)OCC [diethyl acetone-α,α'-dioxalate] | acts in a dose-dependent manner | 0 | 0 | 0 | totally inhibits the tyrosinase activity | effectively inhibits the in vitro production of melanin | ≈ 0 | ≈ 0 | effectively inhibits the DOPA-tyrosinase reaction | > 2000 mg/kg |  |
| Oc1ccc(O)cc1 [hydroquinone, reference compound] |  |  |  |  |  |  |  |  |  |  | 0 |
